Results published in ChEMBL document CHEMBL4184318, “Identification of Fast-Acting 2,6-Disubstituted Imidazopyridines That Are Efficacious in the in Vivo Humanized Plasmodium falciparum NODscidIL2Rγ null Mouse Model of Malaria” (J Med Chem, 2018).
≈ marks a conversion by molar mass, not a printed value.

Experiments:
[1] = Kinetic solubility of the compound in HCl at pH 2 after 20 hrs by shake flask method; format: physicochemical; settings: read-out: Kinetic_solubility
[2] = Kinetic solubility of the compound in phosphate buffered saline at pH 6.5 after 20 hrs by shake flask method; format: physicochemical; settings: read-out: Kinetic_solubility
[3] = Kinetic solubility of the compound in FaSSIF at pH 6.5 after 20 hrs by shake flask method; format: physicochemical; settings: read-out: Kinetic_solubility
[4] = Drug metabolism in iv or po dosed BALB/c mouse plasma assessed as oxidation of cyclopentane ring by LC-MS/MS method; format: ADME, organism-based; settings: in vivo
[5] = Drug metabolism in iv or po dosed BALB/c mouse plasma assessed as oxidation and dehydrogenation of cyclopentane ring by LC-MS/MS method; format: ADME, organism-based; settings: in vivo
[6] = Drug metabolism in iv or po dosed BALB/c mouse plasma assessed as dioxidation of cyclopentane ring by LC-MS/MS method; format: ADME, organism-based; settings: in vivo
[7] = Drug metabolism in po dosed BALB/c mouse plasma assessed as oxidation of pyridine ring by LC-MS/MS method; format: ADME, organism-based; settings: in vivo
[8] = Drug metabolism in po dosed BALB/c mouse plasma assessed as glucuronidation of pyridine ring by LC-MS/MS method; format: ADME, organism-based; settings: in vivo
[9] = Drug metabolism in po dosed BALB/c mouse plasma assessed as sulfation of pyridine ring by LC-MS/MS method; format: ADME, organism-based; settings: in vivo

| SMILES | solubility kinetic at 20 h [1] | solubility kinetic at 20 h [2] | solubility kinetic at 20 h [3] | Drug metabolism [4] | Drug metabolism [5] | Drug metabolism [6] | Drug metabolism [7] | Drug metabolism [8] | Drug metabolism [9] |
| --- | --- | --- | --- | --- | --- | --- | --- | --- | --- |
| FC(F)(F)c1ccc(Nc2cc3[nH]c(C4CCCC4)nc3cn2)nc1 | 132 µM (≈ 45.8 µg/mL) | 145 µM (≈ 50.4 µg/mL) | 85 µM (≈ 29.5 µg/mL) | Metabolite_Detected | Metabolite_Detected | Metabolite_Detected |  |  |  |
| FC(F)(F)c1cccc(-c2nc3cnc(Nc4ccccn4)cc3[nH]2)c1 | 21 µM (≈ 7.46 µg/mL) | < 5 µM |  |  |  |  | Metabolite_Detected | Metabolite_Detected | Metabolite_Detected |
